From patent US9889115B2, “Fitness assay and associated methods” (priority 1998, dated 2018) come the findings set out here.

Holding throughout (format): cell-based
For assay [1], the system named is multidrug-resistant HIV-1 clinical isolate, patient 17. The assay is described as follows: microbe, parasite or virus in culture. To be noted: Patient Isolate 17. As to the method:
(§1) The mutant multidrug-resistant HIV-1 strains corresponding to each patient, numbered 9-35, were genetically analyzed in terms of the nucleic acid sequences of the protease (PR) and a portion of the reverse transcriptase (RT) genes from which mutations in these enzymes were determined. The mutations in the protease and reverse transcriptase of the multidrug-resistant viruses isolated from each patient are shown below in Table 9b.

Assay [2] relates to multidrug-resistant HIV-1 clinical isolate, patient 15. The assay is described as follows: microbe, parasite or virus in culture. To be noted: Patient Isolate 15. As to the method: as §1
Assay [3] deals with multidrug-resistant HIV-1 clinical isolate, patient 35. Nature of the assay: microbe, parasite or virus in culture. Conditions: Patient Isolate 35. As to the method:
as §1

Assay [4] relates to multidrug-resistant HIV-1 clinical isolate, patient 29. The assay is described as follows: microbe, parasite or virus in culture. Conditions: Patient Isolate 29. As to the method:
as §1

In assay [5] the test system is multidrug-resistant HIV-1 clinical isolate, patient 13. Nature of the assay: microbe, parasite or virus in culture. To be noted: Patient Isolate 13. As to the method: as §1
The subject of assay [6] is multidrug-resistant HIV-1 clinical isolate, patient 19. Nature of the assay: microbe, parasite or virus in culture. To be noted: Patient Isolate 19. The procedure: as §1
The subject of assay [7] is multidrug-resistant HIV-1 clinical isolate, patient 23. Nature of the assay: microbe, parasite or virus in culture. To be noted: Patient Isolate 23. As to the method:
as §1

Assay [8] has as its system multidrug-resistant HIV-1 clinical isolate, patient 11. Nature of the assay: microbe, parasite or virus in culture. To be noted: Patient Isolate 11. As to the method:
as §1

For assay [9], the system named is multidrug-resistant HIV-1 clinical isolate, patient 10. Nature of the assay: microbe, parasite or virus in culture. Conditions: Patient Isolate 10. As to the method: as §1
The test system of assay [10] is multidrug-resistant HIV-1 clinical isolate, patient 16. The assay is described as follows: microbe, parasite or virus in culture. Conditions: Patient Isolate 16. The procedure: as §1
Assay [11] relates to multidrug-resistant HIV-1 clinical isolate, patient 12. Nature of the assay: microbe, parasite or virus in culture. To be noted: Patient Isolate 12. The procedure: as §1
Assay [12] has as its system multidrug-resistant HIV-1 clinical isolate, patient 21. Nature of the assay: microbe, parasite or virus in culture. To be noted: Patient Isolate 21. The procedure: as §1
The test system of assay [13] is multidrug-resistant HIV-1 clinical isolate, patient 14. The assay is described as follows: microbe, parasite or virus in culture. To be noted: Patient Isolate 14. As to the method:
as §1

In assay [14] the test system is multidrug-resistant HIV-1 clinical isolate, patient 31. The assay is described as follows: microbe, parasite or virus in culture. To be noted: Patient Isolate 31. The procedure:
as §1

In assay [15] the test system is multidrug-resistant HIV-1 clinical isolate, patient 30. Nature of the assay: microbe, parasite or virus in culture. Conditions: Patient Isolate 30. As to the method: as §1
The test system of assay [16] is multidrug-resistant HIV-1 clinical isolate, patient 18. Nature of the assay: microbe, parasite or virus in culture. To be noted: Patient Isolate 18. The procedure:
as §1

Assay [17] concerns multidrug-resistant HIV-1 clinical isolate, patient 32. The assay is described as follows: microbe, parasite or virus in culture. To be noted: Patient Isolate 32. The procedure: as §1
In assay [18] the test system is multidrug-resistant HIV-1 clinical isolate, patient 20. The assay is described as follows: microbe, parasite or virus in culture. Conditions: Patient Isolate 20. The procedure: as §1
For assay [19], the system named is multidrug-resistant HIV-1 clinical isolate, patient 27. The assay is described as follows: microbe, parasite or virus in culture. Conditions: Patient Isolate 27. The procedure: as §1
For assay [20], the system named is multidrug-resistant HIV-1 clinical isolate, patient 28. The assay is described as follows: microbe, parasite or virus in culture. Conditions: Patient Isolate 28. As to the method:
as §1

The subject of assay [21] is multidrug-resistant HIV-1 clinical isolate, patient 9. Nature of the assay: microbe, parasite or virus in culture. Conditions: Patient Isolate 9. The procedure: as §1
Assay [22] relates to multidrug-resistant HIV-1 clinical isolate, patient 33. Nature of the assay: microbe, parasite or virus in culture. To be noted: Patient Isolate 33. The procedure: as §1
The subject of the next assay is wild-type HIV-1 (WT). The assay is described as follows: IC50 against wild-type HIV-1 (Table 9a). Conditions: (WT).
Assay [23] concerns multidrug-resistant HIV-1 clinical isolate, patient 22. Nature of the assay: IC50 against multidrug-resistant clinical isolates (Table 9a). As to the method:
as §1

Assay [24] deals with multidrug-resistant HIV-1 clinical isolate, patient 34. The description is as above. The procedure: as §1
Setting [25] is: Patient Isolate 22, read-out: IC50.
[26] abbreviates: Patient Isolate 34, read-out: IC50.

Structures are written as SMILES. Where two headings read alike, the source gives them in different places.

What is called IC50 is the concentration needed to halve the response being measured. As for `Cc1c(O)cccc1C(=O)N[C@@H](CSc1ccccc1)[C@H](O)CN1C[C@H]2CCCC[C@H]2C[C@H]1C(=O)NC(C)(C)C` [Nel., Nelfinavir], the IC50 in assay [1] (Human immunodeficiency virus 1) worked out at 0.52 µM; in [2] (Human immunodeficiency virus 1) it was 0.47 µM; in assay [3] (Human immunodeficiency virus 1), 0.48 µM; in assay [4] (Human immunodeficiency virus 1) it was 0.67 µM; in [5] (Human immunodeficiency virus 1), 0.47 µM; in assay [6] (Human immunodeficiency virus 1) it was 0.5 µM. Moreover, the IC50 in assay [7] (Human immunodeficiency virus 1) is 0.28 µM; in assay [8] (Human immunodeficiency virus 1), 0.03 µM; in assay [9] (Human immunodeficiency virus 1), over 1.25 µM; in assay [10] (Human immunodeficiency virus 1), 0.86 µM; in assay [11] (Human immunodeficiency virus 1) it was over 1.25 µM; in assay [12] (Human immunodeficiency virus 1), over 1.25 µM. The IC50 in assay [13] (Human immunodeficiency virus 1) amounted to 0.01 µM; in assay [14] (Human immunodeficiency virus 1), 0.24 µM; in [15] (Human immunodeficiency virus 1), 0.52 µM; in [16] (Human immunodeficiency virus 1), 0.6 µM; in assay [17] (Human immunodeficiency virus 1), 0.22 µM; in assay [18] (Human immunodeficiency virus 1), 0.58 µM. Also, the IC50 in assay [19] (Human immunodeficiency virus 1) was over 1.25 µM; in assay [20] (Human immunodeficiency virus 1), over 1.25 µM; in [21] (Human immunodeficiency virus 1), 0.98 µM; in assay [22] (Human immunodeficiency virus 1), 0.35 µM; in the assay with wild-type HIV-1 (WT) (Human immunodeficiency virus 1) it was 0.031 µM; in assay [23] (Human immunodeficiency virus 1) it was 0.1 µM. Moreover, the IC50 in assay [24] (Human immunodeficiency virus 1) was determined as 0.26 µM.
`Nc1ccn([C@H]2CC[C@@H](CO)O2)c(=O)n1` [DDC, 2′3′-dideoxycytidine] came in with an IC50 in the assay with wild-type HIV-1 (WT) of 0.243 µM.
As to `Nc1ccn([C@@H]2CS[C@H](CO)O2)c(=O)n1` [Compound 3TC], the IC50 in the assay with wild-type HIV-1 (WT) is 0.264 µM.
In the case of `O=c1[nH]cnc2c1ncn2[C@H]1CC[C@@H](CO)O1` [DDI, 2′3′-dideoxyinosine], the IC50 in assay [2] was 2.2 µM; in assay [3], 17 µM; in assay [4], 3.8 µM; in [5], 0.5 µM; in assay [6], 36.6 µM; in assay [7] it was 1.8 µM. For the same compound, the IC50 in assay [8] amounted to 2.4 µM; in assay [9], 1.7 µM; in assay [10] it was 3.5 µM; in assay [11], 0.9 µM; in assay [12], 1 µM; in assay [13], 2.4 µM. In addition, the IC50 worked out at 2.6 µM in [14]; 2.8 µM in assay [15]; 2.2 µM in assay [16]; 8.4 µM in assay [17]; 7.1 µM in assay [18]; 2.6 µM in assay [19]. The IC50 was found to be 2.8 µM in assay [20]; 0.7 µM in [21]; 2 µM in [22]; 0.895 µM in the assay with wild-type HIV-1 (WT); 3.7 µM in assay [23] (setting [25]); 9.1 µM in assay [24] (setting [26]).
`Cc1cn([C@H]2C=C[C@@H](CO)O2)c(=O)[nH]c1=O` [Compound D4T]: the IC50 was 4.28 µM in assay [1]; 1.1 µM in assay [2]; 18.1 µM in assay [3]; 5.29 µM in [4]; 0.78 µM in [5]; 35.6 µM in [6]. The IC50 in assay [7] is 1 µM; in assay [8], 3.1 µM; in [9], 1.29 µM; in assay [10], 1.81 µM; in assay [11] it was 1.23 µM; in assay [12], 3.28 µM. The IC50 was found to be 1.1 µM in assay [13]; 3.11 µM in assay [14]; 2.52 µM in assay [15]; 2.08 µM in assay [16]; 2.41 µM in assay [17]; 22.5 µM in [18]. The IC50 was 4 µM in assay [19]; 5.44 µM in [20]; 0.91 µM in assay [21]; 2.73 µM in assay [22]; 1.06 µM with wild-type HIV-1 (WT); 4.68 µM in [23] (setting [25]). Moreover, in assay [24] (setting [26]), the IC50 stood at 7.71 µM.
As to `Cc1cn([C@H]2C[C@H](N=[N+]=[N-])[C@@H](CO)O2)c(=O)[nH]c1=O` [AZT, 3′-azido-2′,3′-dideoxythymidine], the IC50 was over 1.25 µM in [1]; 0.2 µM in assay [2]; 0.88 µM in assay [3]; over 1.25 µM in assay [4]; 0.17 µM in [5]; over 1.25 µM in [6]. The IC50 was 0.19 µM in assay [7]; 0.11 µM in [8]; 0.02 µM in assay [9]; 0.97 µM in [10]; 0.07 µM in [11]; over 1.25 µM in [12]. The 50% inhibitory concentration (IC50) turned out to be 0.64 µM in assay [13]; 0.16 µM in [15]; 0.55 µM in assay [16]; 0.32 µM in assay [17]; 1.25 µM in [18]; 0.03 µM in [19]. In addition, the IC50 in assay [20] was over 1.25 µM; in assay [21], 0.01 µM; in assay [22] it was 0.51 µM; in the assay on wild-type HIV-1 (WT), 0.022 µM; in assay [23] (setting [25]) it was 1.02 µM.
